Laboratory results as given in US5084462A, “4-quinoline carboxylic acid derivatives useful as immunosuppressive agents” (The Du Pont Merck Pharmaceutical Company, priority 1990, dated 1992).
pIC50: −log10 of the molar value. Read-outs that look alike come from different tables or passages of the source.

Legend:
[1] = test system: contact sensitivity response to 2,4-dinitrofluorobenzene (DNFB); test: Contact sensitivity response to 2,4-dinitrofluorobenzene (DNFB) in mice; assay type: in vivo, Balb/c female mice
Method: This is an antigen-specific T-cell mediated inflammatory response that represents delayed-type hypersensitivity reactions seen in both humans and other mammals.
Balb/c female mice (.perspectiveto.20g, Charles River) were sensitized on the shaved abdomen with 25 μl of 0.5% 2,4-dinitrofluorobenzene ([…], Eastman Kodak Co.) in a vehicle of 4:1 acetone:olive oil on days 0 and 1. Mice were ear challenged with 20 μl of 0.2% DNFB in a vehicle of 4:1 acetone:olive oil on day 5. A constant area of the ears was measured immediately before challenge and 24 hours later with an engineer's micrometer. Ear swelling was expressed as the difference in ear thickness before and after challenge in units of 10^-4 inches±SEM. Percent suppression was calculated as: [formula] […] Negative controls were not sensitized on days 0 and 1 but were ear challenged on day 5. Ten mice were used per group.

[2] = test system: human mixed lymphocyte reaction; test: Human mixed lymphocyte reaction (3H-thymidine incorporation); assay type: cell-based; details: Table 4, human PBMC of two donors, 6 days
Description: Contact sensitivity to DNFB has teen extensively studied and characterized in the mouse to determine the regulatory mechanisms involved in cell mediated immune responses (Claman, et al., Immunol Rev 50:105, 1980). This is an antigen-specific T-cell mediated inflammatory response that represents delayed-type hypersensitivity reactions seen in both humans and other mammals. The primary use of the human mixed lymphocyte reaction is for the determination of transplantation compatibility between the donor (graft) and the recipient (Park and Good, p. 71. In Yunis, et al., Tissue typing and organ transplantation. 1973 Academic Press Inc., N.Y.).
Blood was obtained by venipuncture from two nonrelated human donors. Peripheral blood mononuclear cells (PBMC) were isolated from these samples by using the Leuco Prep procedure (Becton-Dickinson). PBMC were washed twice in phosphate buffered saline (without calcium and magnesium) and the separate cell isolations were adjusted to the appropriate concentrations in media (RPMI 1640) supplemented with 10% human AB serum and […] gentamicin. Cells from donor A (2×10^5) were incubated with cells from donor B (2×10^5) in 96 well round bottom microliter plates at 37° C., 5% CO2 for 6 days. Eighteen hours prior to harvesting cells from the plates, all wells were pulsed with 1 μCi of ^3 H-thymidine. Cells from the plates were harvested on day 6 and ^3 H-thymidine incorporation was determined using a scintillation counter.

[3] = Mus musculus, po, 24 h, Table 3, ear swelling, 20.0 mg/kg oral, read-out: % Suppression

Compound	inhibition in vivo at 20 mg/kg [1, 3] [%]	Ear Swelling (units ± SEM), increase in ear thickness from day 5 to day 6 ([1]; Table 3, 20.0 mg/kg oral)	also measured
Cc1c(-c2ccc(Sc3ccccc3)cc2)nc2ccc(Cl)cc2c1C(=O)O [Example 7]	14.4	62.95 ± 3.40 10^-4 inches	
Cc1c(-c2ccc(Sc3ccccc3)cc2)nc2ccc(Cl)cc2c1C(=O)O [Example 8]		63.25 ± 3.58 10^-4 inches	% Suppression ([1]; Table 3, ear swelling, 20.0 mg/kg oral, 20 mg/kg): 13.98%
O=C(O)c1cc(-c2ccc(-c3ccccc3)cc2)nc2ccc(F)cc12 [Example 9]	43.3	42.60 ± 2.68 10^-4 inches	
Cc1c(-c2ccc([S+]([O-])c3ccccc3)cc2)nc2ccc(F)cc2c1C(=O)O (stereo not shown) [Example 10]	22.4	57.28 ± 2.36 10^-4 inches	
COc1c(-c2ccc(-c3ccccc3)cc2)nc2ccc(F)cc2c1C(=O)O [Example 11]	74.1	20.85 ± 2.53 10^-4 inches	
Cc1c(-c2ccc(-c3ccc(O)cc3)cc2)nc2ccc(Cl)cc2c1C(=O)O [Example 12]	26.3	54.58 ± 3.21 10^-4 inches	
COc1ccc2c(c1)c(CC(=O)O)c(C)n2C(=O)c1ccc(Cl)cc1 [Indomethacin, reference compound]			pIC50 [2]: < 6.00
CN(Cc1cnc2nc(N)nc(N)c2n1)c1ccc(C(=O)N[C@@H](CCC(=O)O)C(=O)O)cc1 [Methotrexate, reference compound]	79.7	16.94 ± 2.10 10^-4 inches	pIC50 [2]: 8.60; inhibition in vivo at 0.4 mg/kg ([1]; Mus musculus, po, 24 h, Table 2, ear swelling, 0.4 mg/kg oral, read-out: % Suppression): 3.83%; inhibition in vivo at 2 mg/kg ([1]; Mus musculus, po, 24 h, Table 2, ear swelling, 2.0 mg/kg oral, read-out: % Suppression): 18.1%; inhibition in vivo at 10 mg/kg ([1]; Mus musculus, po, 24 h, Table 2, ear swelling, 10.0 mg/kg oral, read-out: % Suppression): 51.8%; inhibition in vivo at 20 mg/kg ([1]; Mus musculus, po, 24 h, Table 2, ear swelling, 20.0 mg/kg oral, read-out: % Suppression): 63.6%; ED50 ([1]; Mus musculus, Table 2, suppression of ear swelling, oral, days -2 through 6, read-out: ED50): 9 mg/kg; Ear Swelling (units ± SEM), increase in ear thickness from day 5 to day 6 ([1]; Table 2, 0.4 mg/kg oral): 71.30 ± 2.96 10^-4 inches; Ear Swelling (units ± SEM), increase in ear thickness from day 5 to day 6 ([1]; Table 2, 2.0 mg/kg oral): 60.80 ± 1.99 10^-4 inches; Ear Swelling (units ± SEM), increase in ear thickness from day 5 to day 6 ([1]; Table 2, 10.0 mg/kg oral): 36.10 ± 3.23 10^-4 inches; Ear Swelling (units ± SEM), increase in ear thickness from day 5 to day 6 ([1]; Table 2, 20.0 mg/kg oral): 27.45 ± 4.99 10^-4 inches
